Laboratory results reported in EP1048669A1, “CARBAPENEM DERIVATIVES” (priority 1997, dated 1999).
Structures can show the parent of a compound that is named as a salt. Where two headings read alike, the source gives them in different places.

Legend:
[1] = system: male SD rats; test: Toxicity test on the central nervous system (administration to the right ventricle of the brain); format: in vivo; details: observed thirty minutes
Description: A chronic guide cannula was inserted into the right ventricle of the brain of 7-weeks old male SD rats (n = 5) and immobilized with a dental resin. […] After the administration, behavior of the animal was visually examined in an observing cage for thirty minutes.

[2] = In vivo stability test (TLC bioautography of urine); parameters: species or system rhesus monkey
Procedure: The compound of Example 1 was used as a representative compound, and the compound of Example 139B of Document A was used as a comparative compound. A test agent (10 mg/kg) was intravenously administered to 4-years old male rhesus monkey (body weight 5.48 kg) over a period of 5 minutes. The urine was collected over a period of 0-1 hour and over a period of 1-2 hours, both after the administration. The urine samples were stored at an ice-cooled temperature. A TLC plate (silica gel 60F-254, manufactured by Merck Co.) which had been activated just before use at 120°C for 30 minutes and spotted with 4 µl of each urine sample, was developed with a solvent in a closed vessel (developing solvent: CH3CN/H2O/CH3COOH/25% NH4OH = 45:30:6:2; pH 5.3). After completion of the development, the TLC plate was taken out of the vessel, and dried. An AM-1 medium (manufactured by Difco Co.) containing a test strain (B. subtilis ATCC 12432) was contacted with the silica gel surface of the TLC plate at ambient temperature for 30 minutes. After stripping off the TLC plate, the medium was cultured at 37°C overnight. Rf value of a clear zone formed by the growth inhibition of test strain was determined. As control, the test compound was dissolved in 10 mmol MOPS buffer (pH 7) at the concentration of 250 µg/ml, and 2 µl of this solution was spotted on a TLC plate.

[3] = system: male ICR mice; test: Acute toxicity test (single intravenous administration); format: in vivo; details: observed over five days
Procedure: The compound of Example 24 was used as a representative compound. According to "Explanation Book for GLP Standard and Toxicity Test Guideline" (supervised by Department of Examination, Bureau of Pharmacy, Ministry of Health and Welfare; published by Yakuji Shimpou-sha), a test compound was diluted with distilled water for injection use until the agent concentration reached 60.75 mg/ml and once administered intravenously to the tail vein of 6-weeks old male ICR mice at an administration rate of 1 ml/min. After the administration, the state of death and the general motility were observed over five days.

[4] = system: MRSA BB6294; test: In vitro antibacterial activity, agar plate dilution method (MIC), MRSA conditions; format: cell-based, methicillin-resistant Staphylococcus aureus; details: Staphylococcus aureus, read-out: Minimum growth inhibitory concentrations (MIC)
Procedure: (§1) A Mueller Hinton agar (MH agar) was inoculated with a platinum loop quantity (the quantity of inoculated bacterium: 10^6 CFU/ml) of each test bacterial strain which had been cultured overnight in Mueller Hinton broth. The culture medium contained an antibacterial agent at a varied concentration. After a culture at 37°C for 16 hours, the minimum growth inhibitory concentration (MIC: µg/ml) of the compound of this invention was measured. When MRSA was used as the test strain, a medium containing 2% sodium chloride was used as the test medium in accordance with the above-mentioned agar plate dilution method, and the minimum growth inhibitory concentration (MIC: µg/ml) of the compound of this invention was measured under culture conditions of 35°C, 48 hours.

[5] = system: P. aeruginosa IFO-3445; test: In vitro antibacterial activity, agar plate dilution method (MIC); format: cell-based; details: Pseudomonas aeruginosa, read-out: Minimum growth inhibitory concentrations (MIC)
Procedure: as §1

[6] = system: E. coli NIHJ JC2; test: as above; format: cell-based; details: Escherichia coli, read-out: Minimum growth inhibitory concentrations (MIC)
Procedure: as §1

[7] = target: T1, Metallo-β-lactamase encoded by plasmid pMS350 (Serratia marcescens, UniProt P52699); test: β-Lactamase inhibition test (Nitrocefin substrate); format: biochemical, Pseudomonas aeruginosa GN17203; details: Nitrocefin 37.5 µg/ml, 30°C for 15 minutes, Zn2+ 100 µM, MOPS buffer
T1 construct: made in house
T1 sequence (P52699 19-246): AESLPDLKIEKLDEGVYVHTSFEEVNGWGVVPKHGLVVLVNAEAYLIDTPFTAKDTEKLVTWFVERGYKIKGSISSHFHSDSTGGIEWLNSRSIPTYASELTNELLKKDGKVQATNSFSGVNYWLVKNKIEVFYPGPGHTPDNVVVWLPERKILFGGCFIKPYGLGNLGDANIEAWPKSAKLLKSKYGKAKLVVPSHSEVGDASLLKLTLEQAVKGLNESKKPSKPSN
Procedure: Metallo-β-lactamase encoded by plasmid pMS350 originated from Pseudomonas aeruginosa GN17203 was purified and used for this test. The enzyme previously gave a single protein band on SDS/PAGE (specific activity: 70 U/mg protein). The enzymatic activity (U) was measured by reacting it with 100 µM of imipenem dissolved in 10 mM 3-morpholinopropanesulfonate buffer (pH 7.0) (hereinafter referred to as MOPS buffer) containing 100 µM zinc chloride, and the quantity of enzyme capable of hydrolyzing 1 µM of imipenem per one minute at a reaction temperature of 30°C was defined as 1 U.
As the screening substrate of this test, Nitrocefin®, OXOID) was used. In each well of a 96 well plate, 1 µl of a test agent dissolved in 10 mM MOPS buffer and 25 µl of metallo-β-lactamase preparation (enzymatic activity: 3-6 mU/ml) were mixed, and then 75 µl of 50 µg/ml Nitrocefin® was added and mixed to create a final substrate concentration of 37.5 µg/ml. The enzymic reaction was carried out at 30°C for 15 minutes and followed by measuring the quantity of hydrolyzed Nitrocefin™ at a wavelength of 492 nm by means of a microplate reader. In this screening system, the operation was carried out in the presence of Zn^2+ (100 µM) in order to eliminate the inhibitory effect due to chelating action. […]

[8] = system: Pseudomonas aeruginosa; details: especially against Pseudomonas aeruginosa; cited from earlier work
[9] = 400 µg/rat into right ventricle of the brain
[10] = mouse, 500 mg/kg intravenously once
[11] = mouse, 1,000 mg/kg intravenously once
[12] = mouse, 1,500 mg/kg intravenously once
[13] = 200 µg/rat into right ventricle of the brain

In the case of `CNCc1ccc([C@H]2C[C@H](SC3=C(C(=O)O)N4C(=O)[C@H]([C@@H](C)O)[C@H]4[C@H]3C)CN2)cc1.Cl` [Example 1, (1R,5S,6S)-2-[(3S,5R)-5-[4-N-methylaminomethylphenyl]-pyrrolidin-3-ylthio]-6-[(R)-1-hydroxyethyl]-1-methyl-1-carbapen-2-em-3-carboxylic acid hydrochloride], the “Number of convulsed cases” value [1, 9] is reported as 0/5, the “Number of dead cases” value [1, 9] is reported as 0/5 and the “Rf value, Control” value ([2]; control: test compound in 10 mmol MOPS buffer (pH 7), 250 µg/ml, spotted on TLC plate, clear zone with B. subtilis ATCC 12432) is reported as 0.40. For the same compound, the “Rf value, Accumulated urine during 0-1 hr after administration” value ([2]; rhesus monkey, 10 mg/kg intravenously, urine 0-1 hr, TLC clear zone with B. subtilis ATCC 12432) was 0.40 and the “Rf value, Accumulated urine during 1-2 hrs after administration” value ([2]; rhesus monkey, 10 mg/kg intravenously, urine 1-2 hrs, TLC clear zone with B. subtilis ATCC 12432) was 0.40.
In the case of `C[C@@H](O)[C@H]1C(=O)N2C(C(=O)O)=C(S[C@@H]3CN[C@@H](c4ccc(C(N)CC(N)=O)cc4)C3)[C@H](C)[C@H]12.Cl` (stereo partly drawn) [Example 24, (1R,5S,6S)-2-[(3S,5R)-5-[4-(1-amino-2-carbamoylethyl)-phenyl]pyrrolidin-3-ylthio]-6-[(R)-1-hydroxyethyl]-1-methyl-1-carbapen-2-em-3-carboxylic acid hydrochloride], the “Motility and general symptoms” value [3, 10] is reported as “No abnormality”, the “Number of alive animals” value [3, 10] is reported as 2/2 and the “Motility and general symptoms” value [3, 11] is reported as “No abnormality”. For the same compound, the “Number of alive animals” value [3, 11] was 5/5, the “Motility and general symptoms” value [3, 12] was “No abnormality” and the “Number of alive animals” value [3, 12] was 5/5.
Compound `C[C@@H](O)[C@H]1C(=O)N2C(C(=O)O)=C(S[C@@H]3CN[C@@H](c4csc(CN)c4)C3)[C@H](C)[C@H]12.Cl` [Example 32, (1R,5S,6S)-2-[(3S,5R)-5-(2-aminomethyl-4-thienyl)-pyrrolidin-3-ylthio]-6-[(R)-1-hydroxyethyl]-1-methyl-1-carbapen-2-em-3-carboxylic acid hydrochloride] has an MIC ([4]; MRSA BB6294, medium containing 2% sodium chloride, 35°C, 48 hours) of 3.13 µg/mL, an MIC ([5]; IFO3445, P. aeruginosa IFO-3445, MH agar, 10^6 CFU/ml, 37°C for 16 hours) of 0.39 µg/mL and an MIC ([6]; NIHJJC2, E. coli NIHJ JC2, MH agar, 10^6 CFU/ml, 37°C for 16 hours) of 0.025 µg/mL.
With `C[C@H](N)c1ccc([C@H]2C[C@H](SC3=C(C(=O)O)N4C(=O)[C@H]([C@@H](C)O)[C@H]4[C@H]3C)CN2)cc1` [Example 14, (1R,5S,6S)-2-[(3S,5R)-5-[4-[(1S)-aminoethyl]phenyl]-pyrrolidin-3-ylthio]-6-[(R)-1-hydroxyethyl]-1-methyl-1-carbapen-2-em-3-carboxylic acid hydrochloride] the “Number of convulsed cases” value [1, 13] was 0/5, the “Number of dead cases” value [1, 13] was 0/5 and the MIC ([4]; MRSA, 48 h) was 3.13 µg/mL. The MIC ([5]; IFO3445, 16 h) was 0.1 µg/mL and the MIC ([6]; NIHJJC2, 16 h) was 0.025 µg/mL.
With `C=CCOC(=O)N(C)Cc1ccc([C@H]2C[C@H](SC(C)=O)CN2C(=O)OCC=C)cc1` [Compound of Referential. Ex. 1, (2R,4S)-4-Acetylthio-1-allyloxycarbonyl-2-(4-N-allyloxycarbonyl-N-methylaminomethyl)phenylpyrrolidine] the IC50 [7] was less than 100 nM.
In the case of `C[C@@H](O)[C@H]1C(=O)N2C(C(=O)O)=C(SCCNC=N)C[C@H]12.O` [Imipenem, (5R,6S)-3-[2-(formimidoylamino)-ethylthio]-6-[(R)-1-hydroxyethyl]-7-oxo-1-azabicyclo[3.2.0]hepta-2-ene-2-carboxylic acid monohydrate], the “enhanced antibacterial activity compared to the parent antibiotic, thienamycin” value [8] is given as 2-4 times.
With `C[C@@H](N)c1ccc([C@H]2C[C@H](SC3=C(C(=O)O)N4C(=O)[C@H]([C@@H](C)O)[C@H]4[C@H]3C)CN2)cc1` [Example 15, (1R,5S,6S)-2-[(3S,5R)-5-[4-[(1R)-aminoethyl]phenyl]-pyrrolidin-3-ylthio]-6-[(R)-1-hydroxyethyl]-1-methyl-1-carbapen-2-em-3-carboxylic acid hydrochloride] the “Number of convulsed cases” value [1, 13] was 0/5, the “Number of dead cases” value [1, 13] was 0/5 and the MIC ([4]; MRSA, 48 h) was 3.13 µg/mL. It also gave an MIC ([5]; IFO3445, 16 h) of 0.2 µg/mL and an MIC ([6]; NIHJJC2, 16 h) of 0.025 µg/mL.
